Results: US20260176254A1, “INHIBITORS OF PROSTATE SPECIFIC MEMBRANE ANTIGEN AND USE THEREOF” (SHANGHAI SINOTAU BIOTECH. CO., LTD, priority 2023, published 2026)

Experiments:
[1] = molecular target: T1, recombinant human PSMA (rhPSMA) (Homo sapiens, UniProt Q04609); assay: Naaladase assay (fluorescence-based Naaladase activity inhibition); type: biochemical; conditions: rhPSMA 0.4 μg/mL, substrate N-Acetyl-Asp-Glu 40 μM, 37° C. one hour
T1 construct: purchased Sino Biological
Description: Naaladase activity inhibition was determined using a fluorescence-based assay. Briefly, the solution containing the substrate N-Acetyl-Asp-Glu (Sigma-Aldrich) at 40 μM and the compound at concentrations from 0.15 nM to 1000 nM was mixed at equal volume with recombinant human PSMA (rhPSMA, Sino Biological) at 0.4 μg/mL, in assay buffer (50 mM HEPES, 100 mM NaCl, pH 7.5). The enzymatic reaction was proceeded by incubation at 37° C. for one hour and then stopped by heating at 95° C. for 5 minutes. A solution of 15 mM ortho-phthaldialdehyde (Sigma-Aldrich) was added to all vials and incubated for 10 min at ambient temperature. The reaction solutions were loaded onto a 96-well flat clear bottom black microplates (Corning) and read at excitation and emission wavelengths of 330 and 450 nm, respectively, using a microplate reader (Tecan). The data were analyzed by a one-site total binding regression algorithm of GraphPad Prism (GraphPad Software).

LNCaP cells = assay: Cell uptake assay of 177Lu-labeled compound; type: cell-based; conditions: for Membrane (%): cell membrane fraction; for Intracellular (%): intracellular fraction
Description: LNCaP (ATCC) cells were cultured in RPMI 1640 medium (Gibco) containing 10% fetal bovine serum (FBS) (Gibco), in 5% carbon dioxide (CO2), at 37.0° C. in a humidified incubator. 2×10^5 LNCaP cells/well were seeded in a 24-well plate the day before experiment. 7.4 KBq (200 nCi) of ^177Lu-labeled compound was added into each well, and then incubated in 37° C., 5% CO2 incubator for varying durations. At each time point, the supernatant, cell membrane and intracellular fractions were collected. The cell membrane fraction was recovered by incubating cells with buffer containing 50 mM glycine and 100 mM NaCl, pH 2.7 for 10 minutes at 37° C., while the intracellular fraction was recovered from cells treated with 1M NaOH. Activity of ^177Lu-labelled compound in every component was detected by gamma counter.

T1 sequence (Q04609 whole entry): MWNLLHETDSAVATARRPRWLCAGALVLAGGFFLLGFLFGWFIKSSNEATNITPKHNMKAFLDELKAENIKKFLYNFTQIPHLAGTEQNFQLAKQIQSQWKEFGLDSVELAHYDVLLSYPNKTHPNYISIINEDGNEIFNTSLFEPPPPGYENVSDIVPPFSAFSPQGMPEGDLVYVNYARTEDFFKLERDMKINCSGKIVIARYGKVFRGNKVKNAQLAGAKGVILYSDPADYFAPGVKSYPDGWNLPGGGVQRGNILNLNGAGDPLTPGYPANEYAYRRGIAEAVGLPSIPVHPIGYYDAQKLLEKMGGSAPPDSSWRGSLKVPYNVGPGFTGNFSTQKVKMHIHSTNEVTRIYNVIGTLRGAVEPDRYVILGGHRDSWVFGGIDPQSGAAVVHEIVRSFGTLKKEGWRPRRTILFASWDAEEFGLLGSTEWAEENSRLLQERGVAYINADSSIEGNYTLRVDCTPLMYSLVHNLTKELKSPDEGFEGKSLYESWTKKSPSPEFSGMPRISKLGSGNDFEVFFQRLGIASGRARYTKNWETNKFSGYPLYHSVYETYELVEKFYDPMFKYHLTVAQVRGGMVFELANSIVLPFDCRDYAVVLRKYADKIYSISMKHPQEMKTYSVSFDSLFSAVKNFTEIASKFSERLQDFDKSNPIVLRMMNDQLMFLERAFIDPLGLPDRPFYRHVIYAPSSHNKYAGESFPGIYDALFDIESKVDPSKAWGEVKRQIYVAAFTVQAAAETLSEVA

Structure (SMILES) | IC50 [1] [nM] | Membrane (%) (LNCaP cells; 1 hr) | Membrane (%) (LNCaP cells; 4 hr) | Membrane (%) (LNCaP cells; 24 hr) | Intracellular (%) (LNCaP cells; 1 hr) | Intracellular (%) (LNCaP cells; 4 hr) | Intracellular (%) (LNCaP cells; 24 hr)
O=C(O)CC[C@H](NC(=O)N[C@@H](CCCCNC(=O)[C@H](Cc1ccc2ccccc2c1)Nc1c(NC23CCC(CNC(=O)CN4CCN(CC(=O)O)CCN(CC(=O)O)CCN(CC(=O)O)CC4)(CC2)CC3)c(=O)c1=O)C(=O)O)C(=O)O [E1, (((S)-1-carboxy-5-((S)-2-((3,4-dioxo-2-((4-((2-(4,7,10-tris(carboxymethyl)-1,4,7,10-tetraazacyclododecan-1-yl)acetamido)methyl)bicyclo[2.2.2]octan-1-yl)amino)cyclobut-1-en-1-yl)amino)-3-(naphthalen-2-yl)propanamido)pentyl)carbamoyl)-L-glutamic acid] | 3.3 | 3.4 | 5.6 | 7.1 | 3.0 | 9.9 | 24.8
O=C(O)CN1CCN(CC(=O)O)CCN(CC(=O)NCC23CCC(Nc4c(N[C@@H](Cc5c6ccccc6cc6ccccc56)C(=O)NCCCC[C@H](NC(=O)N[C@@H](CNC(=O)C(=O)O)C(=O)O)C(=O)O)c(=O)c4=O)(CC2)CC3)CCN(CC(=O)O)CC1 [E3, (4S,8S,15S)-16-(anthracen-9-yl)-15-((3,4-dioxo-2-((4-((2-(4,7,10-tris(carboxymethyl)-1,4,7,10-tetraazacyclododecan-1-yl)acetamido)methyl)bicyclo[2.2.2]octan-1-yl)amino)cyclobut-1-en-1-yl)amino)-1,6,14-trioxo-2,5,7,13-tetraazahexadecane-1,4,8-tricarboxylic acid] | 1.2 | 4.0 | 6.8 | 8.8 | 14.7 | 44.2 | 73.3
O=C(O)CCC[C@H](NC(=O)N[C@@H](CCCCNC(=O)[C@H](Cc1c2ccccc2cc2ccccc12)Nc1c(NC23CCC(NC(=O)CN4CCN(CC(=O)O)CCN(CC(=O)O)CCN(CC(=O)O)CC4)(CC2)CC3)c(=O)c1=O)C(=O)O)C(=O)O [E4, (S)-2-(3-((S)-5-((S)-3-(anthracen-9-yl)-2-((3,4-dioxo-2-((4-(2-(4,7,10-tris(carboxymethyl)-1,4,7,10-tetraazacyclododecan-1-yl)acetamido)bicyclo[2.2.2]octan-1-yl)amino)cyclobut-1-en-1-yl)amino)propanamido)-1-carboxypentyl)ureido)hexanedioic acid] | 1.4 | 6.4 | 12.8 | 13.0 | 7.2 | 23.0 | 57.4
O=C(O)CC[C@H](NC(=O)N[C@@H](CCCCNC(=O)[C@H](Cc1ccc2ccccc2c1)Nc1c(NC23CCC(NC(=O)CN4CCN(CC(=O)O)CCN(CC(=O)O)CCN(CC(=O)O)CC4)(CC2)CC3)c(=O)c1=O)C(=O)O)C(=O)O [E6, (((S)-1-carboxy-5-((S)-2-((3,4-dioxo-2-((4-(2-(4,7,10-tris(carboxymethyl)-1,4,7,10-tetraazacyclododecan-1-yl)acetamido)bicyclo[2.2.2]octan-1-yl)amino)cyclobut-1-en-1-yl)amino)-3-(naphthalen-2-yl)propanamido)pentyl)carbamoyl)-L-glutamic acid] | 1.5 | 6.3 | 10.1 | 11.6 | 5.7 | 18.9 | 45.5
O=C(O)CN1CCN(CC(=O)O)CCN(CC(=O)NC23CCC(Nc4c(N[C@@H](Cc5c6ccccc6cc6ccccc56)C(=O)NCCCC[C@H](NC(=O)N[C@@H](CNC(=O)C(=O)O)C(=O)O)C(=O)O)c(=O)c4=O)(CC2)CC3)CCN(CC(=O)O)CC1 [E8] | 1.6 | 4.8 | 12.8 | 7.3 | 11.5 | 39.0 | 77.9
O=C(O)CN1CCN(CC(=O)O)CCN(Cc2nnc(C34CCC(Nc5c(N[C@@H](Cc6c7ccccc7cc7ccccc67)C(=O)NCCCC[C@H](NC(=O)N[C@@H](CNC(=O)C(=O)O)C(=O)O)C(=O)O)c(=O)c5=O)(CC3)CC4)o2)CCN(CC(=O)O)CC1 [E9] | 1 | 5.0 | 9.7 | 10.1 | 12.4 | 40.4 | 72.0
O=C(O)CN1CCN(CC(=O)O)CCN(Cc2nnc([C@H]3CC[C@H](Nc4c(N[C@@H](Cc5c6ccccc6cc6ccccc56)C(=O)NCCCC[C@H](NC(=O)N[C@@H](CNC(=O)C(=O)O)C(=O)O)C(=O)O)c(=O)c4=O)CC3)o2)CCN(CC(=O)O)CC1 [E10] | 1.7 | 7.1 | 10.5 | 11.0 | 16.9 | 50.2 | 76.7
O=C(O)CN1CCN(CC(=O)O)CCN(CC(=O)N[C@H]2CC[C@H](Nc3c(N[C@@H](Cc4c5ccccc5cc5ccccc45)C(=O)NCCCC[C@H](NC(=O)N[C@@H](CNC(=O)C(=O)O)C(=O)O)C(=O)O)c(=O)c3=O)CC2)CCN(CC(=O)O)CC1 [E12] | 0.9 | 11.1 | 18.0 | 12.7 | 7.3 | 24.3 | 41.4
O=C(O)CCC[C@H](NC(=O)N[C@@H](CCCCNC(=O)[C@H](Cc1c2ccccc2cc2ccccc12)Nc1c(Nc2ccc3c(c2)CN(C(=O)CN2CCN(CC(=O)O)CCN(CC(=O)O)CCN(CC(=O)O)CC2)CC3)c(=O)c1=O)C(=O)O)C(=O)O [E13] | 1.7 | 8.3 | 13.8 | 7.1 | 6.9 | 23.0 | 43.3
O=C(O)CCC[C@H](NC(=O)N[C@@H](CCCCNC(=O)[C@H](Cc1c2ccccc2cc2ccccc12)Nc1c(Nc2ccc3c(c2)CCN(C(=O)CN2CCN(CC(=O)O)CCN(CC(=O)O)CCN(CC(=O)O)CC2)C3)c(=O)c1=O)C(=O)O)C(=O)O [E14] | 1.7 | 9.7 | 14.8 | 12.9 | 7.9 | 25.1 | 49.5
O=C(O)CC[C@H](NC(=O)N[C@@H](CCCCNC(=O)[C@H](Cc1c2ccccc2cc2ccccc12)Nc1c(NC23CCC(NC(=O)CN4CCN(CC(=O)O)CCN(CC(=O)O)CCN(CC(=O)O)CC4)(CC2)CC3)c(=O)c1=O)C(=O)O)C(=O)O [E15] | 0.8 | 14.1 | 27.3 | 23.8 | 9.6 | 30.4 | 58.4
O=C(O)CCC[C@H](NC(=O)N[C@@H](CCNC(=O)[C@H](Cc1c2ccccc2cc2ccccc12)NC(=O)[C@H]1CC[C@H](CNC(=O)CN2CCN(CC(=O)O)CCN(CC(=O)O)CCN(CC(=O)O)CC2)CC1)C(=O)O)C(=O)O [HTK03149, reference compound] | 1.6 | 2.9 | 3.8 | 5.7 | 2.8 | 7.4 | 19.3
O=C(O)CC[C@H](NC(=O)N[C@@H](CCCCNC(=O)[C@H](Cc1ccc2ccccc2c1)NC(=O)[C@H]1CC[C@H](CNC(=O)CN2CCN(CC(=O)O)CCN(CC(=O)O)CCN(CC(=O)O)CC2)CC1)C(=O)O)C(=O)O [PSMA-617, reference compound] | 2.4 | 2.1 | 4.8 | 4.7 | 3.0 | 9.5 | 22.4
